Measurements from ChEMBL document CHEMBL5154737, “Semisynthesis and biological evaluation of (+)-sclerotiorin derivatives as antitumor agents for the treatment of hepatocellular carcinoma” (Eur J Med Chem, 2022).
Calls of active or inactive are those of the source. The rule behind the calls is not given here.

How the values were obtained:
[1] = Toxicity in BALB/c nude mouse xenografted with human Bel-7402 cells assessed as change in body weight at 10 to 20 mg/kg, ip bid measured every 2 days for 14 days; format: organism-based; details: in vivo, 336 h, dose 10-20 mg/kg, time 14 day
[2] = Half life in Sprague-Dawley rat at 20 mg/kg, ip measured for 0.03 to 24 hrs by UPLC-MS analysis; format: ADME, organism-based; details: in vivo, time 0.03-24 hrs
Bel-7402 [3] = test: Induction of apoptosis in human Bel-7402 cells assessed as dead cells at 0.313 uM incubated for 24 hrs by Annexin V and dead cell assay kit (reference value: 0.80 %); format: functional
Bel-7402 [4] = test: Induction of apoptosis in human Bel-7402 cells assessed as late apoptotic cells at 0.625 uM incubated for 24 hrs by Annexin V and dead cell assay kit (reference value: 4.45 %); format: functional
[5] = Toxicity in BALB/c nude mouse xenografted with Bel-7402 cells assessed as behavioural change at 20 mg/kg, ip qd; format: organism-based; details: in vivo
[6] = Drug elimination in mouse bearing tumor measured after 24 hr by ICG dye based fluorescence imaging; format: ADME; details: in vivo
Bel-7402 [7] = test: Induction of apoptosis in human Bel-7402 cells assessed as necrotic cells at 2.5 uM incubated for 24 hrs in presence of U0126 by Annexin V and Dead cell kit assay (reference value: 1.6 %); format: functional
Bel-7402 [8] = test: Upregulation of total protein ubiquitination level in human Bel-7402 cells by Western blot analysis; format: functional, cell-based; details: dose <= 10.0 µM, DDE = dose-dependent effect
Bel-7402 [9] = test: Cytotoxicity against human Bel-7402 cells assessed as LDH release at 2.5 uM incubated for 24 hrs by LDH assay; format: functional, cell-based
[10] = Acute toxicity in ICR mouse assessed as change in amount of food intake at 100 to 500 mg/kg, ip; format: organism-based; details: in vivo, dose 100-500 mg/kg
Bel-7402 [11] = test: Induction of apoptosis in human Bel-7402 cells assessed as early apoptotic cells at 1.25 uM incubated for 24 hrs by Annexin V and dead cell assay kit (reference value: 3.75 %); format: functional
Bel-7402 [12] = test: Induction of apoptosis in human Bel-7402 cells assessed as early apoptotic cells at 0.313 uM incubated for 24 hrs by Annexin V and dead cell assay kit (reference value: 3.75 %); format: functional
Bel-7402 [13] = test: Induction of apoptosis in human Bel-7402 cells assessed as dead cells at 0.625 uM incubated for 24 hrs by Annexin V and dead cell assay kit (reference value: 0.80 %); format: functional
Bel-7402 [14] = test: Induction of ERK degradation in human Bel-7402 cells at 2.5 uM incubated for 24 hrs in presence of Z-vad-fmk by Western blot analysis; format: cell-based
Bel-7402 [15] = test: Antitumor activity against human Bel-7402 cells xenografted in BALB/c nude mouse assessed as tumor growth inhibition at 20 mg/kg, ip qd measured every 2 days for 14 days relative to control; format: functional; details: Bel-7402, 336 h, time 14 day, read-out: TGI
[16] = Biodistribution in liver of mouse bearing tumor measured after 24 hr by ICG dye based fluorescence imaging; format: ADME, organism-based; details: in vivo
Bel-7402 [17] = test: Upregulation of total protein ubiquitination level in human Bel-7402 cells at 2.5 uM by Western blot analysis; format: functional, cell-based; details: time <= 12.0 hrs, TDE = time-dependent effect
Bel-7402 [18] = test: Induction of apoptosis in human Bel-7402 cells assessed as increase in cleaved PARP upto 2.5 uM incubated for 24 hrs by Western blot analysis; format: functional, cell-based
[19] = Toxicity in ICR mouse assessed as change in mean corpuscular volume at 100 mg/kg, ip qd (reference value: 51.3 fL); format: organism-based; details: in vivo
Bel-7402 [20] = test: Antitumor activity against human Bel-7402 cells xenografted in BALB/c nude mouse assessed as reduction in tumor growth at 20 mg/kg, ip qd measured every 2 days for 14 days; format: functional, organism-based; details: time 14.0 day
[21] = Biodistribution in lung of mouse bearing tumor measured after 24 hr by ICG dye based fluorescence imaging; format: ADME, organism-based; details: in vivo
Bel-7402 [22] = test: Induction of apoptosis in human Bel-7402 cells assessed as late apoptotic cells at 2.5 uM incubated for 24 hrs in presence of U0126 by Annexin V and Dead cell kit assay (reference value: 3.85 %); format: functional
Bel-7402 [23] = test: Induction of caspase dependent apoptosis in human Bel-7402 cells assessed as reduction in cell proliferation inhibition upto 10 uM incubated for 24 hrs in presence of Z-vad-fmk by MTT assay; format: functional, cell-based
[24] = Acute toxicity in ICR mouse assessed as body weight change at 100 to 500 mg/kg, ip; format: organism-based; details: in vivo, dose 100-500 mg/kg
Bel-7402 [25] = test: Cytotoxicity against human Bel-7402 cells assessed as inhibition rate at 5 uM by MTT assay; format: functional, cell-based; details: time 72.0 hrs, TDE = time-dependent effect

In the case of `CC[C@H](C)/C=C(C)/C=C/C1=CC2=C(Cl)C(=O)[C@](C)(O)C(=O)C2=CN1Cc1ccc(OC(F)(F)F)cc1`, the Activity [1] is reported as “Non-Toxic”, the half-life [2] is reported as 2.5 h and the Activity (Bel-7402 [3]) is reported as 0.35%. The Activity (Bel-7402 [4]) was 3.1%, the Activity [5] was “Non-Toxic” and the Drug excretion [6] was “Metabolite_Detected”. The Activity (Bel-7402 [7]) was 7.75%, the Activity (Bel-7402 [8]) was “Dde” and the Activity (Bel-7402 [9]) was “Active”. For the same compound, the Activity [10] was “Non-Toxic”, the Activity (Bel-7402 [11]) was 5.1% and the Activity (Bel-7402 [12]) was 3.75%. For the same compound, the Activity (Bel-7402 [13]) was 0.6%, the Activity (Bel-7402 [14]) was “Active” and the inhibition in vivo at 20 mg/kg (Bel-7402 [15]) was 18.3%. For the same compound, the Activity [16] was “Active”, the Activity (Bel-7402 [17]) was “Tde” and the Activity (Bel-7402 [18]) was “Active”. For the same compound, the Activity [19] was 55 fL, the TGI (Bel-7402 [20]) was “Active” and the Activity [21] was “Active”. For the same compound, the Activity (Bel-7402 [22]) was 36.9%, the Activity (Bel-7402 [23]) was “Active” and the Activity [24] was “Non-Toxic”. The Activity (Bel-7402 [25]) was “Tde”.
